This passage reports IC50 results from patent publication US8138168B1 (Takeda Pharmaceutical Company Limited, priority 2007, dated 2012).

A word on the IC50: it is the concentration at which inhibition is half-maximal.

Structures are written as SMILES. Where only a bound is given, the exact number is not on record here.

The experiment has as its target T1, Recombinant human renin (Homo sapiens, UniProt P00797).
T1 construct: isolate the active form (residues 67-406); made in house; host or cells: FreeStyle 293-F cells (transient expression of pcDNA3.1(+)/hREN)
T1 sequence (P00797 67-406): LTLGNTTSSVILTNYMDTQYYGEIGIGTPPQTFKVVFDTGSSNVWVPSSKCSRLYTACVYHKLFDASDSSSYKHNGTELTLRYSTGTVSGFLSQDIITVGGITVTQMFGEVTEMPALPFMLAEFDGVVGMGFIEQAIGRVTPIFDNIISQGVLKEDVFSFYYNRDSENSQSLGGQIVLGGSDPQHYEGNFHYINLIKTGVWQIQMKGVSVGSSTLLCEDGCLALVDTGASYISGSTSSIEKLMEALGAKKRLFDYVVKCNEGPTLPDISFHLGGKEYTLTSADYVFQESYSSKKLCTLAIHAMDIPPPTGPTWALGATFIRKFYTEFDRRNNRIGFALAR
Briefly: In vitro enzymatic activity assay of renin inhibitors (fluorogenic peptide substrate). In kind it is biochemical. The note with it: read-out: IC50 of Exemplified Compounds Against Renin. The essentials:
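Recombinant human renin (3 nM final) pre-incubated 10 min at 37 °C with compounds in pH 7.4 Hepes/EDTA/DTT/0.1 mg/mL BSA/Brij35 buffer (optionally plus 2% BSA), 5% DMSO final; fluorogenic QXL520/HiLyteFluo488 peptide substrate added.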
Consider `COCCCn1c([C@@H]2CCCN(C(=O)CC(CN)c3ccc(Cl)cc3)C2)nc2ccccc21` (stereo partly drawn) [Compound 93, 4-amino-3-(4-chlorophenyl)-1-((R)-3-(1-(3-methoxypropyl)-1H-benzo[d]imidazol-2-yl)piperidin-1-yl)butan-1-one], for which the IC50 was greater than 1000 nM.

With `COCCCn1c([C@@H]2CCCN(C(=O)CC(N)C3CCNCC3)C2)nc2ccccc21` (stereo partly drawn) [Compound 94, 3-amino-1-((R)-3-(1-(3-methoxypropyl)-1H-benzo[d]imidazol-2-yl)piperidin-1-yl)-3-(piperidin-4-yl)propan-1-one], the IC50 was greater than 1000 nM.

Regarding `COCCCn1c([C@@H]2CCCN(C(=O)C[C@H](N)Cc3ccc4ccccc4c3)C2)nc2ccc(F)cc21` [Compound 95, (R)-3-amino-1((R)-3-(6-fluoro-1-(3-methoxypropyl)-1H-benzo[d]imidazol-2-yl)piperidin-1-yl)-4-(naphthalen-2-yl)butan-1-one], the IC50 lay in the range of 100 to 1000 nM.

`COCCCn1c([C@@H]2CCCN(C(=O)C[C@H](N)Cc3ccc4ccccc4c3)C2)nc2cc(F)ccc21` [Compound 96, (R)-3-amino-1((R)-3-(5-fluoro-1-(3-methoxypropyl)-1H-benzo[d]imidazol-2-yl)piperidin-1-yl)-4-(naphthalen-2-yl)butan-1-one]: the IC50 fell in the range of 100 to 1000 nM.

With `COCCCn1c([C@@H]2CCCN(C(=O)C[C@H](N)Cc3ccc4ccccc4c3)C2)nc2cccc(Cl)c21` [Compound 97, (R)-3-amino-1-((R)-3-(7-chloro-1-(3-methoxypropyl)-1H-benzo[d]imidazol-2-yl)piperidin-1-yl)-4-(naphthalen-2-yl)butan-1-one], the IC50 is less than 100 nM.

With `COCCCn1c([C@@H]2CCCN(C(=O)C[C@H](N)Cc3ccc(-c4ccccc4)cc3)C2)nc2cccc(Cl)c21` [Compound 98, (R)-3-amino-4-(biphenyl-4-yl)-1-((R)-3-(7-chloro-1-(3-methoxypropyl)-1H-benzo[d]imidazol-2-yl)piperidin-1-yl)butan-1-one], the IC50 was less than 100 nM.

On to `COCCCn1c([C@@H]2CCCN(C(=O)C[C@H](N)Cc3ccc4ccccc4c3)C2)nc2ccc(Cl)cc21` [Compound 99, (R)-3-amino-1-((R)-3-(6-chloro-1-(3-methoxypropyl)-1H-benzo[d]imidazol-2-yl)piperidin-1-yl)-4-(naphthalen-2-yl)butan-1-one], for which the IC50 is 100 to 1000 nM.

Take `COCCCn1c(C2CCCN(C(=O)C[C@H](N)Cc3ccc4ccccc4c3)C2)nc2ccc(OC)nc21` (stereo partly drawn) [Compound 100, (R)-3-amino-1-(3-(5-methoxy-3-(3-methoxypropyl)-3H-imidazo[4,5-b]pyridin-2-yl)piperidin-1-yl)-4-(naphthalen-2-yl)butan-1-one]: the IC50 was in the range of 100 to 1000 nM.

Turning to `COCCCn1c(C2CCCN(C(=O)CC(N)Cc3ccc4ccccc4c3)C2)nc2ccc(=O)[nH]c21` [Compound 101, (R)-2-(1-(3-amino-4-(naphthalen-2-yl)butanoyl)piperidin-3-yl)-3-(3-methoxypropyl)-3H-imidazo[4,5-b]pyridin-5(4H)-one], the IC50 was greater than 1000 nM.

`COCCCn1c(C2CCCN(C(=O)C[C@H](N)Cc3ccc4ccccc4c3)C2)nc2ccc(Cl)nc21` (stereo partly drawn) [Compound 102, (R)-3-amino-1-(3-(5-chloro-3-(3-methoxypropyl)-3H-imidazo[4,5-b]pyridin-2-yl)piperidin-1-yl)-4-(naphthalen-2-yl)butan-1-one]: the IC50 is greater than 1000 nM.

As to `COCCCn1c([C@@H]2CCCN(C(=O)C[C@H](N)Cc3ccc(-c4ccccc4)cc3)C2)nc2ccncc21` [Compound 103, (R)-3-amino-4-(biphenyl-4-yl)-1((R)-3-(3-(3-methoxypropyl)-3H-imidazo[4,5-c]pyridin-2-yl)piperidin-1-yl)butan-1-one], the IC50 was greater than 1000 nM.

As to `COCCCn1c([C@@H]2CCCN(C(=O)C[C@H](N)Cc3ccc4ccccc4c3)C2)nc2c(OC)cccc21` [Compound 104, (R)-3-amino-1((R)-3-(4-methoxy-1-(3-methoxypropyl)-1H-benzo[d]imidazol-2-yl)piperidin-1-yl)-4-(naphthalen-2-yl)butan-1-one], the IC50 was 100 to 1000 nM.

As for `COCCCn1c([C@@H]2CCCN(C(=O)C[C@H](N)Cc3ccc4ccccc4c3)C2)nc2cc(C)ccc21` [Compound 105, (R)-3-amino-1((R)-3-(1-(3-methoxypropyl)-5-methyl-1H-benzo[d]imidazol-2-yl)piperidin-1-yl)-4-(naphthalen-2-yl)butan-1-one], the IC50 was less than 100 nM.

Turning to `COCCCn1c([C@@H]2CCCN(C(=O)C[C@H](N)Cc3ccc4ccccc4c3)C2)nc2c(C)cccc21` [Compound 106, (R)-3-Amino-1-((R)-3-(1-(3-methoxypropyl)-4-methyl-1H-benzo[d]imidazol-2-yl)piperidin-1-yl)-4-(naphthalen-2-yl)butan-1-one], the IC50 is less than 100 nM.

For the compound `COCCCn1c([C@@H]2CCCN(C(=O)C[C@H](N)Cc3ccc4ccccc4c3)C2)nc2cccc(C)c21` [Compound 107, (R)-3-Amino-1-((R)-3-(1-(3-methoxypropyl)-7-methyl-1H-benzo[d]imidazol-2-yl)piperidin-1-yl)-4-(naphthalen-2-yl)butan-1-one], the IC50 was greater than 1000 nM.

Regarding `COCCCn1c([C@@H]2CCCN(C(=O)C[C@H](N)Cc3ccc4ccccc4c3)C2)nc2cccc(OC)c21` [Compound 108, (R)-3-amino-1-((R)-3-(7-methoxy-1-(3-methoxypropyl)-1H-benzo[d]imidazol-2-yl)piperidin-1-yl)-4-(naphthalen-2-yl)butan-1-one], the IC50 lay within 100 to 1000 nM.

With `COCCCn1c([C@@H]2CCCN(C(=O)C[C@H](N)Cc3ccc4ccccc4c3)C2)nc2ccc(C#N)cc21` [Compound 109, 2-((R)-1-((R)-3-amino-4-(naphthalen-2-yl)butanoyl)piperidin-3-yl)-1-(3-methoxypropyl)-1H-benzo[d]imidazole-6-carbonitrite], the IC50 lay within 100 to 1000 nM.

Take `COCCCn1c([C@@H]2CCCN(C(=O)C[C@H](N)Cc3ccc4ccccc4c3)C2)nc2ccc(OC)cc21` [Compound 110, (R)-3-amino-1((R)-3-(6-methoxy-1-(3-methoxypropyl)-1H-benzo[d]imidazol-2-yl)piperidin-1-yl)-4-(naphthalen-2-yl)butan-1-one]: the IC50 lay in the range of 100 to 1000 nM.

Consider `COCCCn1c(C2CCCN(C(=O)C[C@H](N)Cc3ccc4ccccc4c3)C2)nc2ccc(C(=O)OC)cc21` (stereo partly drawn) [Compound 111, methyl 2-(1-((R)-3-amino-4-(naphthalen-2-yl)butanoyl)piperidin-3-yl)-1-(3-methoxypropyl)-1H-benzo[d]imidazole-6-carboxylate], for which the IC50 was 100 to 1000 nM.

Turning to `COCCCn1c(C2CCCN(C(=O)C[C@H](N)Cc3ccc4ccccc4c3)C2)nc2cccc(C(=O)OC)c21` (stereo partly drawn) [Compound 112, methyl 2-(1-((R)-3-amino-4-(naphthalen-2-yl)butanoyl)piperidin-3-yl)-1-(3-methoxypropyl)-1H-benzo[d]imidazole-7-carboxylate], the half-inhibitory concentration (IC50) was greater than 1000 nM.

Turning to `COCCCn1c(C2CCCN(C(=O)C[C@H](N)Cc3ccc4ccccc4c3)C2)nc2ccc(CO)cc21` (stereo partly drawn) [Compound 113, (3R)-3-amino-1-(3-(6-(hydroxymethyl)-1-(3-methoxypropyl)-1H-benzo[d]imidazol-2-yl)piperidin-1-yl)-4-(naphthalen-2-yl)butan-1-one], the IC50 is 100 to 1000 nM.
